The record followed here is patent US20140017673A1, “METHOD FOR ENUMERATING EUKARYOTIC CELL MICRONUCLEI WITH AN EMPHASIS ON SIMULTANEOUSLY ACQUIRING CYTOTOXICITY AND MODE OF ACTION INFORMATION” (priority 2012, published 2014).

Structures can show the parent of a compound that is named as a salt. Where two headings read alike, the source gives them in different places.

In series [1] the test system is TK6 cells. The settings on record: for Avg. % EMA+ / Avg. % M / Avg. % MN / Avg. % RS / Avg. M as % G2/M: human.
The subject of series [2] is TK6 cells. Description: Polyploidy as an aneugenic signature (flow cytometry, 96-well plate). As to conditions: 0.025 μg paclitaxel/ml, approximately 24 hrs. Background: A flow cytometer gives signals particle by particle.

Regarding `COC(=O)Nc1nc2ccccc2[nH]1` [Carbendazim], in series [1] (0.125 μg/ml), the “Avg. % EMA+” value is given as 2.3%, the “Avg. % M” value worked out at 1.6%, the “Avg. % MN” value is 0.8% and the “Avg. % RS” value is reported as 96.9%. In addition, the “Avg. M as % G2/M” value in series [1] (0.125 μg/ml) is listed as 6.1%. In series [1] (0.5 μg/ml), the “Avg. % EMA+” value is 6.4%, the “Avg. % M” value worked out at 1.6%, the “Avg. % MN” value is given as 3.8% and the “Avg. % RS” value stood at 71.2%. In series [1] (0.5 μg/ml), the “Avg. M as % G2/M” value is given as 10.3%. Moreover, in series [1] (1 μg/ml), the “Avg. % EMA+” value was 10.0%, the “Avg. % M” value amounted to 5.6%, the “Avg. % MN” value turned out to be 14.7% and the “Avg. % RS” value was determined as 49.7%. Also, the “Avg. M as % G2/M” value in series [1] (1 μg/ml) was 24.9%. Moreover, in series [1] (2 μg/ml), the “Avg. % EMA+” value was found to be 12.0%, the “Avg. % M” value is recorded as 5.4%, the “Avg. % MN” value was determined as 22.3% and the “Avg. % RS” value came to 43.3%. Further, in series [1] (2 μg/ml), the “Avg. M as % G2/M” value amounted to 18.5%.
With `COc1cc2c(c(OC)c1OC)-c1ccc(OC)c(=O)cc1[C@@H](NC(C)=O)CC2` [Colchicine], in series [1], the “cytotoxicity (dose-dependent reductions to RS), FIG. 3” value was “cytotoxic” and the “genotoxicity (increased MN observed), FIG. 3 dose-response” value is “genotoxic”.
`COc1cc([C@@H]2c3cc4c(cc3[C@@H](O[C@@H]3O[C@@H]5CO[C@@H](C)O[C@H]5[C@H](O)[C@H]3O)[C@H]3COC(=O)[C@H]23)OCO4)cc(OC)c1O` [Etoposide]: in series [1] (0.005 μg/ml), the “Avg. % EMA+” value was 2.3%, the “Avg. % M” value is 1.6%, the “Avg. % RS” value was determined as 83.3% and the “Avg. M as % G2/M” value is 5.7%. Further, in series [1] (0.01 μg/ml), the “Avg. % EMA+” value was determined as 3.7%, the “Avg. % M” value stood at 1.4%, the “Avg. % RS” value turned out to be 69.6% and the “Avg. M as % G2/M” value is 5.2%. Moreover, in series [1] (0.02 μg/ml), the “Avg. % EMA+” value worked out at 5.3%, the “Avg. % M” value amounted to 1.2%, the “Avg. % RS” value is 52.6% and the “Avg. M as % G2/M” value stood at 3.8%.
In the case of `COC1=CC(=O)C[C@@H](C)[C@]12Oc1c(Cl)c(OC)cc(OC)c1C2=O` [Griseofulvin], the “Avg. % EMA+” value came out at 3.0% in series [1] (0.375 μg/ml), 2.6% in series [1] (0.75 μg/ml), 8.2% in series [1] (3 μg/ml) and 13.5% in series [1] (6 μg/ml). Moreover, the “Avg. % M” value in series [1] (0.375 μg/ml) turned out to be 1.9%; in series [1] (0.75 μg/ml) it was 1.8%; in series [1] (3 μg/ml) it was 3.0%; in series [1] (6 μg/ml), 5.8%. Further, the “Avg. % RS” value in series [1] (0.375 μg/ml) is 96.6%; in series [1] (0.75 μg/ml), 99.5%; in series [1] (3 μg/ml), 64.9%; in series [1] (6 μg/ml), 46.6%. Also, the “Avg. M as % G2/M” value in series [1] (0.375 μg/ml) is recorded as 6.0%; in series [1] (0.75 μg/ml), 5.8%; in series [1] (3 μg/ml), 19.4%; in series [1] (6 μg/ml), 26.4%.
In the case of `NC(=O)NO` [HU, Hydroxyurea], in series [1] (0.5 μg/ml), the “Avg. % EMA+” value is on record as 2.4%, the “Avg. % M” value is on record as 1.6%, the “Avg. % MN” value came to 0.4% and the “Avg. % RS” value came out at 100.9%. The “Avg. M as % G2/M” value in series [1] (0.5 μg/ml) is 5.4%. In series [1] (0.9 μg/ml), the “Avg. % EMA+” value is given as 2.3%, the “Avg. % M” value is 1.6%, the “Avg. % MN” value came out at 0.5% and the “Avg. % RS” value was 97.1%. The “Avg. M as % G2/M” value in series [1] (0.9 μg/ml) is 5.9%. Moreover, in series [1] (3.8 μg/ml), the “Avg. % EMA+” value stood at 5.8%, the “Avg. % M” value is reported as 1.7%, the “Avg. % MN” value was found to be 0.9% and the “Avg. % RS” value is 65.7%. For the same molecule, the “Avg. M as % G2/M” value in series [1] (3.8 μg/ml) is 4.7%. For the same molecule, in series [1] (7.5 μg/ml), the “Avg. % EMA+” value turned out to be 13.7%, the “Avg. % M” value is given as 1.0%, the “Avg. % MN” value is given as 1.9% and the “Avg. % RS” value is given as 44.3%. Moreover, in series [1] (7.5 μg/ml), the “Avg. M as % G2/M” value was 3.9%.
On to `CC(=O)O[C@H]1C(=O)[C@@]2(C)[C@H]([C@H](OC(=O)c3ccccc3)[C@]3(O)C[C@H](OC(=O)[C@H](O)[C@@H](NC(=O)c4ccccc4)c4ccccc4)C(C)=C1C3(C)C)[C@]1(OC(C)=O)CO[C@@H]1C[C@@H]2O` [Paclitaxel], for which, in series [2], the “induction of polyploid nuclei (8n), FIG. 6” value is “robust induction”. For the same molecule, the “Avg. % EMA+” value in series [1] (1.6 μg/ml) is recorded as 3.7%; in series [1] (2.4 μg/ml), 7.3%; in series [1] (3.3 μg/ml), 10.0%; in series [1] (4.9 μg/ml) it was 12.3%; in series [1] (6.5 μg/ml) it was 13.2%. Moreover, the “Avg. % M” value in series [1] (1.6 μg/ml) worked out at 1.7%; in series [1] (2.4 μg/ml), 2.2%; in series [1] (3.3 μg/ml), 3.4%; in series [1] (4.9 μg/ml), 4.4%; in series [1] (6.5 μg/ml), 4.6%. The “Avg. % MN” value in series [1] (1.6 μg/ml) was determined as 1.5%; in series [1] (2.4 μg/ml), 4.4%; in series [1] (3.3 μg/ml) it was 9.2%; in series [1] (4.9 μg/ml), 12.5%; in series [1] (6.5 μg/ml) it was 15.8%. The “Avg. M as % G2/M” value in series [1] (1.6 μg/ml) was 7.1%; in series [1] (2.4 μg/ml) it was 9.7%; in series [1] (3.3 μg/ml), 12.2%; in series [1] (4.9 μg/ml) it was 11.3%; in series [1] (6.5 μg/ml), 10.2%.
For `CC[C@]1(O)C[C@@H]2CN(CCc3c([nH]c4ccccc34)[C@@](C(=O)OC)(c3cc4c(cc3OC)N(C)[C@H]3[C@@](O)(C(=O)OC)[C@H](OC(C)=O)[C@]5(CC)C=CCN6CC[C@]43[C@@H]65)C2)C1` [Vinblastine sulfate], the “Avg. % EMA+” value in series [1] (0.1 μg/ml) was found to be 2.0%; in series [1] (0.2 μg/ml) it was 2.7%; in series [1] (0.4 μg/ml) it was 4.0%; in series [1] (0.8 μg/ml), 5.8%; in series [1] (1.6 μg/ml), 8.8%. The “Avg. % M” value amounted to 1.8% in series [1] (0.1 μg/ml); 1.5% in series [1] (0.2 μg/ml); 2.7% in series [1] (0.4 μg/ml); 7.2% in series [1] (0.8 μg/ml); 4.4% in series [1] (1.6 μg/ml). The “Avg. % MN” value in series [1] (0.1 μg/ml) was determined as 0.7%; in series [1] (0.2 μg/ml) it was 1.6%; in series [1] (0.4 μg/ml), 3.3%; in series [1] (0.8 μg/ml), 7.5%; in series [1] (1.6 μg/ml), 12.6%. For the same molecule, the “Avg. % RS” value in series [1] (0.1 μg/ml) is 88.0%; in series [1] (0.2 μg/ml) it was 79.6%; in series [1] (0.4 μg/ml), 70.6%; in series [1] (0.8 μg/ml), 48.0%; in series [1] (1.6 μg/ml) it was 37.6%. In addition, the “Avg. M as % G2/M” value in series [1] (0.1 μg/ml) is 8.6%; in series [1] (0.2 μg/ml), 9.0%; in series [1] (0.4 μg/ml) it was 17.1%; in series [1] (0.8 μg/ml), 32.0%; in series [1] (1.6 μg/ml), 14.1%.
As for `CC[C@]1(O)C[C@H]2CN(CCc3c([nH]c4ccccc34)[C@@](C(=O)OC)(c3cc4c(cc3OC)N(C=O)[C@H]3[C@@](O)(C(=O)OC)[C@H](OC(C)=O)[C@]5(CC)C=CCN6CC[C@]43[C@@H]65)C2)C1` [Vincristine sulfate], in series [1] (0.125 μg/ml), the “Avg. % EMA+” value worked out at 3.3%, the “Avg. % M” value was 1.9%, the “Avg. % MN” value is listed as 0.6% and the “Avg. % RS” value came out at 91.9%. The “Avg. M as % G2/M” value in series [1] (0.125 μg/ml) is 7.1%. In series [1] (0.5 μg/ml), the “Avg. % EMA+” value was determined as 5.1%, the “Avg. % M” value amounted to 2.1%, the “Avg. % MN” value worked out at 2.7% and the “Avg. % RS” value is listed as 72.1%. For the same molecule, the “Avg. M as % G2/M” value in series [1] (0.5 μg/ml) stood at 8.4%. Besides, in series [1] (1 μg/ml), the “Avg. % EMA+” value came out at 8.2%, the “Avg. % M” value stood at 3.4%, the “Avg. % MN” value was 7.9% and the “Avg. % RS” value was 53.1%. Further, the “Avg. M as % G2/M” value in series [1] (1 μg/ml) worked out at 13.5%.
